Source: patent US20070203233A1, “NOVEL 2-(alpha-N-PENTANONYL)BENZOATES, THEIR PREPARATION AND USE” (priority 2004, published 2007)
Marks after values point to notes of the source that are not given here.

Columns and labels:
[1] = system: model rats of middle cerebral artery thrombosis (MCAT); test: Effects on cerebral infarct area of MCAT rats; assay type: in vivo, SD rats; settings: for Cerebral infarct tissue weight/total brain weight (%): 24 h after operation, TTC staining; for Inhibition (%): cerebral infarct vs. model group
[2] = system: model rats of middle cerebral artery thrombosis (MCAT); test: Effects on neural symptoms of MCAT rats; assay type: in vivo, SD rats; set-up: key to Scores 6 hours / Scores 24 hours: 0/1 per test, summed (max 4); higher = more severe behavioral disorder; settings: for Scores 6 hours: behavioral score 6 h after operation (full mark 4); for Scores 24 hours: behavioral score 24 h after operation (full mark 4); for % inhibition at hour 24: vs. model group
Procedure: (1) Grouping and administration: […] Preventive administration was conducted by gavage one time per day for 3 days prior to the model being established. The model was established on day 4, and a dosage of one day was administered by gavage immediately after the model was established. Another dosage of one day was again administered by gavage 12 hours after the model was established. Equivalent amount of the vehicle was administered to the control group. […] Description of technique and early neuropathological consequences following middle cerebral artery occlusion. J Cereb Blood Flow Metab, 1981, 1: 53), and fixed in lateral decubitus position. A bowtype incision of 1.5 cm long was made at the midpoint between canthus and exterior auditory canal. Temporalis was broken and incised to expose temporal bone. […] The filter paper was removed after 30 min when the vascular became black. The localized tissue was washed with physiological brine, and sutured layer by layer. Then rats were placed back into the cages. By following the modified method of Bederson et al. […] (2) The animals were placed onto a smooth ground, and the resistance of contralateral shoulder to push was examined. “0” was recorded if the resistance of both shoulders were equal and strong; and “1” was recorded if the resistance of contralateral shoulder to push was decreased. […] (4) The tail of the rat was lifted 30 cm high away from the ground, and “1” was recorded if the animals ceaselessly circled contralaterally. “4” was full mark in accordance with the above-mentioned standard. The higher the score was, more severe the behavioral disorder of the animal was. 4. Results: The behavioral scores in each group were compared by student t test.

[3] = viscous liquid; cited from earlier work
The Stability to Light = assay type: physicochemical; settings: 10 days, HPLC
[4] = system: thrombus of artery-vein bypass in rats; test: Effects on thrombosis of artery-vein bypass in rats; assay type: in vivo, SD rats; settings: for Dry-weight of thrombus / Wet-weight of thrombus: once per day for 3 days; for Inhibition (%) of dry-weight of thrombus / Inhibition (%) of wet-weight of thrombus: vs. thrombus model group
Procedure: Testing methods are described in Chen-Qi, “Methodology for Pharmacological Research of Chinese Medicine”,People's Medical Publishing House, Sep. 1993, 1st ed., page 510. […] Equivalent amount of the vehicle was administered to the thrombus model group. The operation was conducted immediately after the final administration. […] The operation was conducted to separate the right common carotid artery and the left external jugular vein. A pre-weighed suture # 0 of 8 cm long was placed into the middle part of a polyethylene tube of 10 cm long. Then the tube was filled with normal saline, and connected at both ends to the cannula of 3 cm long filled with normal saline. One end of the tube was inserted into the left external jugular vein, and another end was inserted into the right common carotid artery. The blood flowed from the right common carotid artery to the polyethylene tube, and then flow back to the left external jugular vein, so as to construct a bypass circulation. […] The wet-weight of the thrombus was obtained by subtracting the weight of the suture and the paper from this total wet weight. […] The thrombus was taken out and weighed to obtain a total dry weight. The dry weight of the thrombus was obtained by subtracting the weight of the suture and the paper form this total dry weight. The results in each group were compared by student's t test. […] Testing Results

Thermal Stability = assay type: physicochemical; settings: 60° C., 10 days, HPLC
in vivo = settings: both, ICR, mouse, po

SMILES | Cerebral infarct tissue weight/total brain weight (%) ([1]; 50 mg/kg by gavage) | Inhibition (%) ([1]; 50 mg/kg by gavage) | Cerebral infarct tissue weight/total brain weight (%) ([1]; 100 mg/kg by gavage) | Inhibition (%) ([1]; 100 mg/kg by gavage) | Cerebral infarct tissue weight/total brain weight (%) ([1]; 200 mg/kg by gavage) | Inhibition (%) ([1]; 200 mg/kg by gavage) | Scores 6 hours ([2]; 50 mg/kg by gavage) | Scores 24 hours ([2]; 50 mg/kg by gavage) | Scores 6 hours ([2]; 100 mg/kg by gavage) | Scores 24 hours ([2]; 100 mg/kg by gavage) | Scores 6 hours ([2]; 200 mg/kg by gavage) | Scores 24 hours ([2]; 200 mg/kg by gavage) | further results
CCCCC1OC(=O)c2ccccc21 (racemic) [DL-3-n-butylphthalide] | 5.66 ± 2.81% | 23.62% | 5.81 ± 1.49 % | 26.83% | 5.52 ± 1.78 % | 27.46% | 3.36 ± 0.81 | 3.09 ± 0.54 | 3.36 ± 0.50 | 3.09 ± 0.70 | 3.36 ± 0.67 | 3.00 ± 0.89 | % inhibition at hour 24 ([2]; 50 mg/kg by gavage): 15.11%; % inhibition at hour 24 ([2]; 100 mg/kg by gavage): 17.16%; % inhibition at hour 24 ([2]; 200 mg/kg by gavage): 19.57%; solubility in water (in words) [3]: insoluble in water
CCCCC(=O)c1ccccc1C(=O)O [Calcium 2-(α-n-pentanonyl)benzoate, calcium 2-(α-n-pentanonyl)benzoate] | 5.01 ± 1.79 % | 32.39% | 5.23 ± 2.04 % | 34.13% | 4.65 ± 2.13 % | 38.90% | 3.18 ± 0.60 | 2.73 ± 0.65**^,s | 3.40 ± 0.52 | 2.90 ± 0.57 | 3.27 ± 0.79 | 2.45 ± 0.82 | decomposed product detected, stability to light (in words) (The Stability to Light): no decomposed product; Dry-weight of thrombus ([4]; 50 mg/kg by gavage): 40.2 ± 18.0 mg; Wet-weight of thrombus ([4]; 50 mg/kg by gavage): 199.8 ± 30.4 mg; Inhibition (%) of dry-weight of thrombus ([4]; 50 mg/kg by gavage): 21.64%; Inhibition (%) of wet-weight of thrombus ([4]; 50 mg/kg by gavage): 22.92%; Dry-weight of thrombus ([4]; 100 mg/kg by gavage): 34.2 ± 13.1 mg; Wet-weight of thrombus ([4]; 100 mg/kg by gavage): 189.8 ± 52.3 mg; Inhibition (%) of dry-weight of thrombus ([4]; 100 mg/kg by gavage): 33.33%; Inhibition (%) of wet-weight of thrombus ([4]; 100 mg/kg by gavage): 26.77%; Dry-weight of thrombus ([4]; 200 mg/kg by gavage): 30.4 ± 13.9 mg; Wet-weight of thrombus ([4]; 200 mg/kg by gavage): 163.2 ± 64.4 mg; Inhibition (%) of dry-weight of thrombus ([4]; 200 mg/kg by gavage): 40.74%; Inhibition (%) of wet-weight of thrombus ([4]; 200 mg/kg by gavage): 37.04%; decomposed product detected, thermal stability (in words) (Thermal Stability): no decomposed product; cerebral infarct as compared with the model group (in words) ([1]; 50 mg/kg, P<0.05): significantly reduced; LD50 at 7 days (in vivo): 2680 mg/kg
